This is an account of results in patent US9801960B2, “Probe for a biological specimen and labelling method and screening method using the probe” (CANON KABUSHIKI KAISHA, priority 2008, dated 2017).

Test system in one data set: not listed separately
As to the kind of experiment: Excitation and fluorescence emission wavelength measurement. The class given is physicochemical. The following applies: aqueous solution: 10 mg/mL solution in DMSO diluted 500-fold with purified water. Also on record: Stokes shift (λem − λex): unit not given here. On the procedure: It should be noted that the excitation wavelength and the fluorescence emission wavelength of the staining compound were determined by measuring an aqueous solution, which had been obtained by diluting 500-fold a 10 mg/mL solution of the staining compound in DMSO with purified water, with a fluorescence spectrophotometer FL 4500 manufactured by Hitachi High-Technologies Corporation.
As for `CCN1C(=O)/C(=c2\s/c(=C/c3ccc4c(c3)C3CCCC3N4Cc3ccccc3)c(=O)n2CC(=O)O)SC1=S` (centres unmarked) [Dye 40], the Excitation wavelength λex turned out to be 576 nm, the Fluorescence emission wavelength λem was 657 nm and the “Stokes shift (λem − λex)” value was 81.
Turning to `O=C(O)C1=NN(c2ccccc2)C(=O)/C1=C\c1cc(Br)c2c(c1)C1CCCC1N2c1ccc(Br)cc1` (centres unmarked) [Dye 42], the Excitation wavelength λex came out at 563 nm, the Fluorescence emission wavelength λem was determined as 618 nm and the “Stokes shift (λem − λex)” value is given as 55.
`COc1ccc2cc(N3c4ccc(/C=C5\C(=O)N(c6ccc(C(=O)O)cc6)N=C5C)cc4C4CCCC43)ccc2c1` (centres unmarked) [Dye 43]: the Excitation wavelength λex came out at 569 nm, the Fluorescence emission wavelength λem turned out to be 649 nm and the “Stokes shift (λem − λex)” value stood at 80.
Consider `CC1=NN(c2ccc(C(=O)O)cc2)C(=O)/C1=C\c1ccc2c(c1)C1CCCC1N2Cc1ccccc1` (centres unmarked) [Dye 44], for which the Excitation wavelength λex is 510 nm, the Fluorescence emission wavelength λem stood at 558 nm and the “Stokes shift (λem − λex)” value is listed as 48.
The like results for `COc1ccc2cc(N3c4ccc(/C=C/c5sc6ccccc6[n+]5CC(=O)O)cc4C4CCCC43)ccc2c1` (centres unmarked) [Dye 45] were, in that order, 401 nm, 516 nm and 115.
The like results for `O=C(O)C1=NN(c2ccccc2)C(=O)/C1=C\c1ccc2c(c1)C1CCCC1N2c1ccc(Cc2ccccc2)cc1` (centres unmarked) [Dye 50] were, in that order, 481 nm, 586 nm and 105.
The like results for `O=C(O)C1=NN(c2ccccc2)C(=O)/C1=C\c1ccc2c(c1)C1CCCC1N2c1ccc(C=C(c2ccccc2)c2ccccc2)cc1` (centres unmarked) [Dye 51] were, in that order, 582 nm, 670 nm and 88.

In another data set the test system is Zebrafish juveniles. As to the kind of experiment: In vivo labelling of Zebrafish juveniles with probe for biological specimen. The settings on record: 10 ng/mL in water, 1 hour, stereoscopic microscope. Also on record: key to Staining property: +++: stained; −: no stained; key to Fluorescence sensitivity: +++: strongly observed; ++: moderately observed; +: weakly observed; −: no stained. On the procedure:
Five juveniles of Zebrafish were put into one well of a well plate together with rearing water. After rearing water had been discharged, 1 mL of distilled water was added to the well, and a solution of a staining compound (1) in DMSO was further added thereto so as to achieve a concentration of 10 ng/mL, followed by gentle stirring (pipetting). Further, Egg Water was prepared by dissolving artificial seawater SEALIFE (manufactured by Marinetech Co., Ltd.) in distilled water at a concentration of 60 mg/L. After the whole had been left to stand for 1 hour, distilled water in the well was discharged and replaced by 1 mL of fresh Egg Water. In addition, such an operation that Egg Water was discharged and replaced by 1 mL of fresh Egg Water was repeated twice. One of the juveniles was taken out from the well onto a dish, supplemented with 100 μL of a 3% methylcellulose aqueous solution to fix the movement of the juvenile, and photographed with a stereoscopic microscope (MZ10F: manufactured by Leica Microsystems K.K.).
The same operation as that in Example 1 was performed except that the staining compound (1) used in Example 1 was changed to any one of the staining compounds described in Table 1.
The same operation as that in Example 1 was performed except that the staining compound (1) used in Example 1 was changed to any one of indocyanine green (ICG) and fluorescein.
The staining property of each of the staining compounds of Labelled Examples 1 to 78 and Labelled Comparative Examples 1 and 2 was visually evaluated (+++: stained and −: no stained).
The fluorescence intensity of each of the staining compounds of Labelled Examples 1 to 78 and Labelled Comparative Examples 1 and 2 was visually evaluated (+++: strongly observed, ++: moderately observed, +: weakly observed, and −: no stained).
Turning to `CCN1C(=O)/C(=c2\s/c(=C/c3ccc4c(c3)C3CCCC3N4Cc3ccccc3)c(=O)n2CC(=O)O)SC1=S` (centres unmarked) [Dye 40], the “Site(s) to be labelled” value was “blood vessel, liver, and gastrointestinal tract”.
On the same count and under the same terms, next, `O=C(O)C1=NN(c2ccccc2)C(=O)/C1=C\c1cc(Br)c2c(c1)C1CCCC1N2c1ccc(Br)cc1` (centres unmarked) [Dye 42]: “skin surface, liver, and gastrointestinal tract”; `CC1=NN(c2ccc(C(=O)O)cc2)C(=O)/C1=C\c1ccc2c(c1)C1CCCC1N2Cc1ccccc1` (centres unmarked) [Dye 44]: “liver and gastrointestinal tract”; `COc1ccc2cc(N3c4ccc(/C=C/c5sc6ccccc6[n+]5CC(=O)O)cc4C4CCCC43)ccc2c1` (centres unmarked) [Dye 45]: “nose”.
Still for that read-out and setting: next, `O=C(O)C1=NN(c2ccccc2)C(=O)/C1=C\c1ccc2c(c1)C1CCCC1N2c1ccc(C=C(c2ccccc2)c2ccccc2)cc1` (centres unmarked) [Dye 51]: “gallbladder and gastrointestinal tract”.

Still in this data set, the particulars now being: 10 ng/mL, 1 hour, fluorescence intensity visually evaluated.
As to `CCN1C(=O)/C(=c2\s/c(=C/c3ccc4c(c3)C3CCCC3N4Cc3ccccc3)c(=O)n2CC(=O)O)SC1=S` (centres unmarked) [Dye 40], the Fluorescence sensitivity result is “+++”.
Same read-out and setting: next, `O=C(O)C1=NN(c2ccccc2)C(=O)/C1=C\c1cc(Br)c2c(c1)C1CCCC1N2c1ccc(Br)cc1` (centres unmarked) [Dye 42]: “+++”.
As for `COc1ccc2cc(N3c4ccc(/C=C5\C(=O)N(c6ccc(C(=O)O)cc6)N=C5C)cc4C4CCCC43)ccc2c1` (centres unmarked) [Dye 43], the Fluorescence sensitivity result is given as “+++”.
Same read-out and setting: next, `CC1=NN(c2ccc(C(=O)O)cc2)C(=O)/C1=C\c1ccc2c(c1)C1CCCC1N2Cc1ccccc1` (centres unmarked) [Dye 44]: “+++”.
As for `COc1ccc2cc(N3c4ccc(/C=C/c5sc6ccccc6[n+]5CC(=O)O)cc4C4CCCC43)ccc2c1` (centres unmarked) [Dye 45], the Fluorescence sensitivity entry is on record as “+++”.
On the same count and under the same terms, next, `O=C(O)C1=NN(c2ccccc2)C(=O)/C1=C\c1ccc2c(c1)C1CCCC1N2c1ccc(Cc2ccccc2)cc1` (centres unmarked) [Dye 50]: “+++”; `O=C(O)C1=NN(c2ccccc2)C(=O)/C1=C\c1ccc2c(c1)C1CCCC1N2c1ccc(C=C(c2ccccc2)c2ccccc2)cc1` (centres unmarked) [Dye 51]: “+”.

Still in this data set, the particulars now being: 10 ng/mL, 1 hour, visually evaluated.
As to `CCN1C(=O)/C(=c2\s/c(=C/c3ccc4c(c3)C3CCCC3N4Cc3ccccc3)c(=O)n2CC(=O)O)SC1=S` (centres unmarked) [Dye 40], the Staining property result is listed as “+++”.
As for `O=C(O)C1=NN(c2ccccc2)C(=O)/C1=C\c1cc(Br)c2c(c1)C1CCCC1N2c1ccc(Br)cc1` (centres unmarked) [Dye 42], the Staining property result was “+++”.
The same measure, in the same setting: then `COc1ccc2cc(N3c4ccc(/C=C5\C(=O)N(c6ccc(C(=O)O)cc6)N=C5C)cc4C4CCCC43)ccc2c1` (centres unmarked) [Dye 43], with “+++”; and `CC1=NN(c2ccc(C(=O)O)cc2)C(=O)/C1=C\c1ccc2c(c1)C1CCCC1N2Cc1ccccc1` (centres unmarked) [Dye 44], with “+++”.
On the same count and under the same terms, then `COc1ccc2cc(N3c4ccc(/C=C/c5sc6ccccc6[n+]5CC(=O)O)cc4C4CCCC43)ccc2c1` (centres unmarked) [Dye 45], with “+++”; and `O=C(O)C1=NN(c2ccccc2)C(=O)/C1=C\c1ccc2c(c1)C1CCCC1N2c1ccc(Cc2ccccc2)cc1` (centres unmarked) [Dye 50], with “+++”.
Still for that read-out and setting: next, `O=C(O)C1=NN(c2ccccc2)C(=O)/C1=C\c1ccc2c(c1)C1CCCC1N2c1ccc(C=C(c2ccccc2)c2ccccc2)cc1` (centres unmarked) [Dye 51]: “+++”.

Test system in another data set: not listed separately
Put plainly: Storage stability of staining compound solution in DMSO. The class given is physicochemical. The following applies: 10 ng/mL in DMSO, closed glass container, normal temperature, 1 month; rate of change of absorbance and fluorescence intensity. As for the experimental part: A 10 ng/mL solution of each of the staining compounds of Labelled Examples 1 to 78 and Labelled Comparative Examples 1 and 2 in DMSO was prepared, charged into a well-closed container made of glass, and left to stand still at normal temperature for 1 month. The absorbance and the fluorescence intensity at the time of the start of a storage stability test were measured at a given wavelength, and their rates of change were examined (+++: rates of change of the absorbance and the fluorescence intensity are less than 5%, and thus, the storage stability is highly excellent; ++: rates of change of the absorbance and fluorescence intensity are 5 to 15%, and thus, the storage stability is excellent; and −: rates of change of the absorbance and fluorescence intensity are more than 15%, and thus, the storage stability is poor).
With `CCN1C(=O)/C(=c2\s/c(=C/c3ccc4c(c3)C3CCCC3N4Cc3ccccc3)c(=O)n2CC(=O)O)SC1=S` (centres unmarked) [Dye 40], the Storage stability result is “+++ (rates of change of the absorbance and the fluorescence intensity are less than 5%, and thus, the storage stability is highly excellent)”.
On the same count and under the same terms, then `O=C(O)C1=NN(c2ccccc2)C(=O)/C1=C\c1cc(Br)c2c(c1)C1CCCC1N2c1ccc(Br)cc1` (centres unmarked) [Dye 42], with “++ (rates of change of the absorbance and fluorescence intensity are 5 to 15%, and thus, the storage stability is excellent)”; and `COc1ccc2cc(N3c4ccc(/C=C5\C(=O)N(c6ccc(C(=O)O)cc6)N=C5C)cc4C4CCCC43)ccc2c1` (centres unmarked) [Dye 43], with “+++ (rates of change of the absorbance and the fluorescence intensity are less than 5%, and thus, the storage stability is highly excellent)”.
Still for that read-out and setting: then `CC1=NN(c2ccc(C(=O)O)cc2)C(=O)/C1=C\c1ccc2c(c1)C1CCCC1N2Cc1ccccc1` (centres unmarked) [Dye 44], with “++ (rates of change of the absorbance and fluorescence intensity are 5 to 15%, and thus, the storage stability is excellent)”.
On to `COc1ccc2cc(N3c4ccc(/C=C/c5sc6ccccc6[n+]5CC(=O)O)cc4C4CCCC43)ccc2c1` (centres unmarked) [Dye 45], for which the Storage stability entry is “+++ (rates of change of the absorbance and the fluorescence intensity are less than 5%, and thus, the storage stability is highly excellent)”.
As to `O=C(O)C1=NN(c2ccccc2)C(=O)/C1=C\c1ccc2c(c1)C1CCCC1N2c1ccc(Cc2ccccc2)cc1` (centres unmarked) [Dye 50], the Storage stability result is “++ (rates of change of the absorbance and fluorescence intensity are 5 to 15%, and thus, the storage stability is excellent)”.
On the same count and under the same terms, next, `O=C(O)C1=NN(c2ccccc2)C(=O)/C1=C\c1ccc2c(c1)C1CCCC1N2c1ccc(C=C(c2ccccc2)c2ccccc2)cc1` (centres unmarked) [Dye 51]: “++ (rates of change of the absorbance and fluorescence intensity are 5 to 15%, and thus, the storage stability is excellent)”.
